Data on two compounds can be found in ChEMBL document CHEMBL5620347, “Discovery of thiohydantoin based antagonists of androgen receptor with efficient degradation for the treatment of prostate cancer” (Eur J Med Chem, 2023).

Data set [1] is described as follows: AUC (0 to infinity) in Sprague-Dawley rat at 5 mg/kg, iv measured upto 1440 mins by LC-MS/MS analysis. Format: ADME, organism-based. Particulars: in vivo.
Data set [2] in a line: Half life in Sprague-Dawley rat at 5 mg/kg, iv measured upto 1440 mins by LC-MS/MS analysis. Particulars: in vivo. The class given is ADME, organism-based.
Data set [3] is described as follows: Volume of distribution at steady state in Sprague-Dawley rat at 5 mg/kg, iv measured upto 1440 mins by LC-MS/MS analysis. The class given is ADME, organism-based. Particulars: in vivo, read-out: Vdss.
Data set [4] in a line: Clearance in Sprague-Dawley rat at 5 mg/kg, iv measured upto 1440 mins by LC-MS/MS analysis. To be noted: in vivo. Format: ADME, organism-based.
Data set [5] in a line: Cmax in Sprague-Dawley rat at 20 mg/kg, po measured upto 1440 mins by LC-MS/MS analysis. To be noted: in vivo. The class given is ADME, organism-based.
A short description of data set [6]: AUC (0 to infinity) in Sprague-Dawley rat at 20 mg/kg, po measured upto 1440 mins by LC-MS/MS analysis. Format: ADME, organism-based. Particulars: in vivo, 24 h.
Data set [7] is described as follows: Half life in Sprague-Dawley rat at 20 mg/kg, po measured upto 1440 mins by LC-MS/MS analysis. Format: ADME, organism-based. To be noted: in vivo.
Data set [8] can be described thus: Volume of distribution at steady state in Sprague-Dawley rat at 20 mg/kg, po measured upto 1440 mins by LC-MS/MS analysis. Particulars: in vivo, 24 h. The class given is ADME, organism-based.
Data set [9] can be described thus: Clearance in Sprague-Dawley rat at 20 mg/kg, po measured upto 1440 mins by LC-MS/MS analysis. The class given is ADME, organism-based. To be noted: in vivo, 24 h.
Data set [10] is described as follows: Oral bioavailability in Sprague-Dawley rat at 20 mg/kg measured upto 1440 mins by LC-MS/MS analysis. Format: ADME, organism-based. Particulars: in vivo.
Data set [11] is described as follows: AUC (0 to infinity) in Sprague-Dawley rat at 20 mg/kg, ip measured upto 1440 mins by LC-MS/MS analysis. Particulars: in vivo. The class given is ADME, organism-based.
Data set [12] in a line: Volume of distribution at steady state in Sprague-Dawley rat at 20 mg/kg, ip measured upto 1440 mins by LC-MS/MS analysis. To be noted: in vivo, 24 h. The class given is ADME, organism-based.
The nature of data set [13]: Clearance in Sprague-Dawley rat at 20 mg/kg, ip measured upto 1440 mins by LC-MS/MS analysis. Format: ADME, organism-based. To be noted: in vivo.
The nature of data set [14]: Bioavailability in Sprague-Dawley rat at 20 mg/kg, ip measured upto 1440 mins by LC-MS/MS analysis. Format: ADME, organism-based. Particulars: in vivo.
Data set [15] in a line: Toxicity in BALB/c nude mouse xenografted with human LNCaP cells assessed as reduction in body weight at 30 mg/kg, ip measured every 2 days for 28 days. The class given is organism-based. Particulars: in vivo, 672 h, time 28 day. (In xenograft studies the graft and the host belong to different species.)
A short description of data set [16]: Toxicity in BALB/c nude mouse xenografted with human 22Rv1 cells assessed as reduction in body weight at 30 mg/kg, ip measured every 2 days for 28 days. The class given is organism-based, CWR22R. Particulars: in vivo, 672 h, time 28 day.
Data set [17] can be described thus: Toxicity in BALB/c mouse assessed as appearance of lesions in lung at 30 mg/kg, ip measured after 3 days by H and E staining based analysis. The class given is organism-based. Particulars: in vivo, 72 h, time 3 day.
The nature of data set [18]: Toxicity in BALB/c mouse assessed as appearance of lesions in liver at 30 mg/kg, ip measured after 3 days by H and E staining based analysis. Format: organism-based. Particulars: in vivo, 72 h, time 3 day.
A short description of data set [19]: Toxicity in BALB/c mouse assessed as appearance of lesions in spleen at 30 mg/kg, ip measured after 3 days by H and E staining based analysis. The class given is organism-based. Particulars: in vivo, 72 h, time 3 day.
Data set [20] in a line: Toxicity in BALB/c mouse assessed as appearance of lesions in kidney at 30 mg/kg, ip measured after 3 days by H and E staining based analysis. The class given is organism-based. To be noted: in vivo, 72 h, time 3 day.
Data set [21] can be described thus: Toxicity in BALB/c mouse assessed as appearance of lesions in heart at 30 mg/kg, ip measured after 3 days by H and E staining based analysis. Format: organism-based. To be noted: in vivo, 72 h, time 3 day.
A short description of data set [22]: Toxicity in BALB/c mouse assessed as effect on serum ALT level at 30 mg/kg, ip measured after 3 days by biochemical analysis. The class given is organism-based. Particulars: in vivo, 72 h, time 3 day.
Data set [23] in a line: Toxicity in BALB/c mouse assessed as effect on serum AST level at 30 mg/kg, ip measured after 3 days by biochemical analysis. The class given is organism-based. Particulars: in vivo, 72 h, time 3 day.
A short description of data set [24]: Toxicity in BALB/c mouse assessed as effect on BUN level at 30 mg/kg, ip measured after 3 days by biochemical analysis. The class given is organism-based. To be noted: in vivo, 72 h, time 3 day.
A short description of data set [25]: Toxicity in BALB/c mouse assessed as effect on creatinine level at 30 mg/kg, ip measured after 3 days by biochemical analysis. The class given is organism-based. To be noted: in vivo, 72 h, time 3 day.
The nature of data set [26]: Toxicity in BALB/c mouse assessed as effect on serum uric acid level at 30 mg/kg, ip measured after 3 days by biochemical analysis. Particulars: in vivo, 72 h, time 3 day. Format: organism-based.
Data set [27] has as its system LNCaP. In words: Antitumor activity against human LNCaP cells xenografted in BALB/c nude mouse assessed as tumor growth inhibition at 30 mg/kg, ip measured every 2 days for 28 days relative to control. To be noted: 672 h, read-out: TGI.
Data set [28] relates to CWR22R. In words: Antitumor activity against human 22Rv1 cells xenografted in BALB/c nude mouse assessed as tumor growth inhibition at 30 mg/kg, ip measured every 2 days for 28 days relative to control. Particulars: 22Rv1, 672 h, read-out: TGI.
In data set [29] the test system is LNCaP. In words: cells. Particulars: Homo sapiens, 72 h.
Description: Cytotoxicity against androgen receptor dependent human LNCaP cells assessed as inhibition of cell growth incubated for 72 hrs by MTT assay
The test system of data set [30] is DU-145. In words: cells. To be noted: Homo sapiens, DU-145, 72 h.
Description: Cytotoxicity against androgen receptor independent human DU-145 cells assessed as inhibition of cell growth incubated for 72 hrs by MTT assay

The term AUC(0-inf) denotes total exposure, with the tail of the curve extrapolated. Read a low AUC(0-inf) as low exposure. Usually half-life stands for how long it takes for the measured level to halve. The clearance is a measure of how efficiently the substance is removed, as volume per time. A low value points to inefficient removal. In general, Cmax refers to the highest concentration seen after dosing. Usually AUC stands for the area under the concentration-time curve, a measure of exposure. High values mean high exposure, low ones low exposure. One may read the bioavailability as dose-corrected exposure relative to a reference, in per cent. Read a high bioavailability as good availability. A word on the CL/F: it is clearance divided by bioavailability, as obtained after extravascular dosing. For the compound `N#Cc1ccc(N2C(=O)CN(CCCN3CCCc4ccccc43)C2=S)cc1C(F)(F)F`, the total exposure AUC(0-inf) in [1] was found to be 3500 ng·h/mL; in [11], 9160 ng·h/mL. Moreover, the half-life in [2] was 5.02 h; in data set [7], 3.06 h. For the same compound, in [3], the Vd was 6.9 L/kg. Moreover, the clearance in data set [4] is 15.7 mL/min/kg. Besides, the peak level in data set [5] (Cmax) was 92.1 ng/mL. The compound further had an exposure (AUC) in [6] of 805.18 ng·h/mL. Besides, the Vdss in data set [8] turned out to be 16.72 L/kg; in data set [12], 8.77 L/kg. Also, the CL in data set [9] amounted to 84.8 mL/min/kg. Moreover, the bioavailability in data set [10] is 5.74%; in [14] it was 67.2%. The CL/F in [13] is 60.2 mL/min/kg. Besides, the Activity result in data set [15], in [16], in data set [17], in data set [18], in [19] and in [20] was “Non-Toxic” throughout. For the same compound, the Activity entry in [21], in data set [22], in [23], in [24], in data set [25] and in data set [26] was “Non-Toxic” each time.
By IC50 is commonly meant the concentration needed to halve the response being measured. A high value points to weaker potency. On to `CNC(=O)c1ccc(N2C(=S)N(c3ccc(C#N)c(C(F)(F)F)c3)C(=O)C2(C)C)cc1F` [ENZALUTAMIDE], for which the figures for the inhibition in vivo at 30 mg/kg in data set [27] and in data set [28] were 41.5% and 39.9%, respectively. For the same compound, the IC50 was 13.9 µM in data set [29] and more than 50 µM in data set [30].
